Source: patent US20220226281A1, “COMPOUNDS FOR USE IN ANTI-CANCER IMMUNOTHERAPY” (priority 2019, published 2022)

System: splenocytes from LCMV-CL13 infected IFN-γ-YFP mice
Format: cell-based

Compound | Mean Z-score at 1 μM (reversal of T-cell exhaustion)
O=S(=O)(NCCCCCCc1ccccc1)c1cccc2c(Cl)cccc12 [5-chloro-N-(6-phenylhexyl)naphthalene-1-sulfonamide] | 11.1
CC1=C[C@]23C(=O)[C@@H](C=C(CO)[C@@H](O)[C@]2(O)[C@H]1O)[C@H]1[C@@H](C[C@H]3C)C1(C)C [Ingenol] | 0.6
CC(C)[C@H]1C(=O)N[C@H](CO)Cc2cc(NC(=O)/C=C/C=C/c3ccc(C(F)(F)F)cc3)ccc2N1C [TPPB] | 4.6
CC(=O)O[C@@]12C[C@@H](C)[C@@]3(O)[C@@H](C=C(CO)C[C@]4(O)C(=O)C(C)=C[C@@H]34)[C@@H]1C2(C)C [prostratin] | 48.9
CC(=O)O[C@@]12[C@H](O)[C@@H](C)[C@@]3(O)C(C=C(CO)C[C@]4(O)C(=O)C(C)=C[C@@H]34)[C@@H]1C2(C)C (some centres unmarked) [Phorbol-13-acetate] | 0.9
C/C=C(/C)C(=O)O[C@H]1C(C)=C[C@]23C(=O)[C@@H](C=C(CO)[C@@H](O)[C@]12O)[C@H]1[C@@H](C[C@H]3C)C1(C)C [Ingenol-3-angelate] | 30.9
CCCCCCCCCCCCCC(=O)O[C@@H]1[C@@H](C)[C@@]2(O)C(C=C(CO)C[C@]3(O)C(=O)C(C)=C[C@@H]23)[C@@H]2C(C)(C)[C@]12OC(C)=O (some centres unmarked) [12-O-tetradecanoylphorbol-13-acetate] | 17.8
CO[C@@H](CC[C@H](C)[C@H]1O[C@@]23C[C@H](OC(=O)C2=C(O)[C@H](C)CC3(C)C)[C@@H]1C)c1cccc(O)c1 [Neo-debromoaplysiatoxin B] | 3.6
